Results from ChEMBL document CHEMBL6121036, “Evaluation of Cereblon-Directing Warheads for the Development of Orally Bioavailable PROTACs” (J Med Chem, 2025).
Values after ≈ are worked out from the molar mass of the structure shown. Values belong to the compound of their own block, whether it stands above or below them. Active and inactive are the calls of the source. No cut-off for these calls is given here.

Assays:
[1] = biological target: T1, Protein cereblon/Bromodomain-containing protein 4 (Homo sapiens, UniProt O60885+Q96SW2); experiment: PROTAC activity at CRBN/Hibit-tagged BRD4 (unknown origin) expressed in HEK293 cells co-expressing LgBiT assessed as degradation of BRD4 incubated for 24 hrs by […] glo-max assay; type: cell-based
[2] = biological target: T1, Protein cereblon/Bromodomain-containing protein 4; experiment: PROTAC activity at CRBN/Hibit-tagged BRD4 (unknown origin) expressed in HEK293 cells co-expressing LgBiT assessed as degradation of BRD4 incubated for 24 hrs by […] glo-max assay relative to control; type: cell-based
[3] = biological target: T1, Protein cereblon/Bromodomain-containing protein 4; experiment: PROTAC activity at CRBN/Hibit-tagged BRD4 (unknown origin) expressed in HEK293 cells co-expressing LgBiT assessed as degradation rate incubated for 24 hrs by […] glo-max assay; type: cell-based
MV4-11 = experiment: Cytotoxicity against human MV4-11 cells assessed as reduction in cell viability incubated for 72 hrs by cell-titer glo assay; type: functional, cell-based; details: MV4-11, 72 h
HD-MB03 = experiment: Cytotoxicity against human HD-MB03 cells assessed as reduction in cell viability incubated for 72 hrs by cell-titer glo assay; type: functional, cell-based; details: HD-MB03, 72 h
[4] = Kinetic aqueous solubility of the compound at pH 7.4; type: physicochemical; details: read-out: Kinetic_solubility
[5] = Metabolic stability in mouse liver microsomes assessed as half life; type: ADME, Microsome; details: liver microsomes
[6] = biological target: T2, Protein cereblon/Bromodomain-containing protein 4/DNA damage-binding protein 1 (Homo sapiens) (UniProt O60885+Q96SW2+Q16531); experiment: Binding affinity to his-tagged CRBN/DDB1/GST-tagged BRD4 (49 to 170 residues)(unknown origin) assessed as ternary complex formation (AUC) incubated for 1 hr by luminescence based Alphascreen assay; type: protein assay
HEK293 = experiment: Cytotoxicity against HEK293 cells expressing LgBiT fused HiBiT-BRD2 measured after 24 hrs by cell titer-glo assay; type: toxicity, cell-based; details: human, hek293, 24 h
[7] = biological target: T2, Protein cereblon/Bromodomain-containing protein 4/DNA damage-binding protein 1 (Homo sapiens); experiment: Binding affinity to his-tagged CRBN/DDB1/GST-tagged BRD4 (49 to 170 residues)(unknown origin) assessed as ternary complex formation by measuring AUC incubated for 1 hr by luminescence based Alphascreen assay; type: protein assay
[8] = biological target: T3, Protein cereblon/Bromodomain-containing protein 2 (Homo sapiens) (UniProt P25440+Q96SW2); experiment: PROTAC activity at CRBN/Hibit-tagged CRISPR BRD2 (unknown origin) expressed in HEK293 cells coexpressing LgBiT assessed as degradation of BRD2 by […] glo-max assay; type: cell-based
[9] = biological target: T4, Protein cereblon/Bromodomain-containing protein 3 (Homo sapiens) (UniProt Q15059+Q96SW2); experiment: PROTAC activity at CRBN/Hibit-tagged CRISPR BRD3 (unknown origin) expressed in HEK293 cells co-expressing LgBiT assessed as degradation of BRD3 by […] glo-max assay; type: cell-based
[10] = biological target: T1, Protein cereblon/Bromodomain-containing protein 4; experiment: PROTAC activity at CRBN/Hibit-tagged CRISPR BRD4 (unknown origin) expressed in HEK293 cells co-expressing LgBiT assessed as degradation of BRD4 by […] glo-max assay; type: cell-based
[11] = biological target: T3, Protein cereblon/Bromodomain-containing protein 2 (Homo sapiens); experiment: PROTAC activity at CRBN/Hibit-tagged CRISPR BRD2 (unknown origin) expressed in HEK293 cells coexpressing LgBiT assessed as degradation of BRD2 by […] glo-max assay relative to control; type: cell-based
[12] = biological target: T4, Protein cereblon/Bromodomain-containing protein 3 (Homo sapiens); experiment: PROTAC activity at CRBN/Hibit-tagged CRISPR BRD3 (unknown origin) expressed in HEK293 cells co-expressing LgBiT assessed as degradation of BRD3 by […] glo-max assay relative to control; type: cell-based
[13] = biological target: T1, Protein cereblon/Bromodomain-containing protein 4; experiment: PROTAC activity at CRBN/Hibit-tagged CRISPR BRD4 (unknown origin) expressed in HEK293 cells co-expressing LgBiT assessed as degradation of BRD4 by […] glo-max assay relative to control; type: cell-based
[14] = biological target: T3, Protein cereblon/Bromodomain-containing protein 2 (Homo sapiens); experiment: PROTAC activity at CRBN/Hibit-tagged CRISPR BRD2 (unknown origin) expressed in HEK293 cells coexpressing LgBiT assessed as degradation of BRD2 measured after 10 to 14 hrs by […] glo-max assay; type: cell-based; details: time 10-14 hrs
[15] = biological target: T4, Protein cereblon/Bromodomain-containing protein 3 (Homo sapiens); experiment: PROTAC activity at CRBN/Hibit-tagged CRISPR BRD3 (unknown origin) expressed in HEK293 cells co-expressing LgBiT assessed as degradation of BRD3 measured after 13 to 16 hrs by […] glo-max assay; type: cell-based; details: time 13-16 hrs
[16] = biological target: T1, Protein cereblon/Bromodomain-containing protein 4; experiment: PROTAC activity at CRBN/Hibit-tagged CRISPR BRD4 (unknown origin) expressed in HEK293 cells co-expressing LgBiT assessed as degradation of BRD4 measured after 18 to 24 hrs by […] glo-max assay; type: cell-based; details: time 18-24 hrs
[17] = biological target: Protein cereblon (Homo sapiens) (UniProt Q96SW2); experiment: Binding affinity to CRBN (unknown origin)
[18] = Effect on BRD3 level in human MV4-11 cells assessed as fold change at 100 nM measured after 4 hrs; type: functional
[19] = Effect on BRD4 level in human MV4-11 cells assessed as fold change at 100 nM measured after 4 hrs; type: functional
[20] = Effect on BRD2 level in human MV4-11 cells assessed as fold change at 100 nM measured after 4 hrs; type: functional
[21] = Effect on MYC level in human MV4-11 cells assessed as fold change at 100 nM measured after 4 hrs; type: functional
[22] = Effect on FYTTD1 level in human MV4-11 cells assessed as fold change at 100 nM measured after 4 hrs; type: functional
[23] = Effect on CCNF level in human MV4-11 cells assessed as fold change at 100 nM measured after 4 hrs; type: functional
[24] = Effect on CDC42EP3 level in human MV4-11 cells assessed as fold change at 100 nM measured after 4 hrs; type: functional
[25] = Effect on MCL1 level in human MV4-11 cells assessed as fold change at 100 nM measured after 4 hrs; type: functional
[26] = Effect on PLAU level in human MV4-11 cells assessed as fold change at 100 nM measured after 4 hrs; type: functional
[27] = Effect on ZFP36L2 level in human MV4-11 cells assessed as fold change at 100 nM measured after 4 hrs; type: functional
[28] = Effect on FGL2 level in human MV4-11 cells assessed as fold change at 100 nM measured after 4 hrs; type: functional
[29] = Effect on NSA2 level in human MV4-11 cells assessed as fold change at 100 nM measured after 4 hrs; type: functional
[30] = Effect on CCND3 level in human MV4-11 cells assessed as fold change at 100 nM measured after 4 hrs; type: functional
[31] = Effect on AURKA level in human MV4-11 cells assessed as fold change at 100 nM measured after 4 hrs; type: functional
[32] = Effect on NOP53 level in human MV4-11 cells assessed as fold change at 100 nM measured after 4 hrs; type: functional
[33] = Effect on PLK1 level in human MV4-11 cells assessed as fold change at 100 nM measured after 4 hrs; type: functional
[34] = Effect on RNF166 level in human MV4-11 cells assessed as fold change at 100 nM measured after 4 hrs; type: functional
[35] = Effect on ZBTB21 level in human MV4-11 cells assessed as fold change at 100 nM measured after 4 hrs; type: functional
[36] = Effect on TP53 level in human MV4-11 cells assessed as fold change at 100 nM measured after 4 hrs; type: functional
[37] = Permeability in MDCK-II cells incubated for 1 hr by UPLC/MS/UV analysis; type: ADME, cell-based, Canis lupus familiaris; details: dog, read-out: permeability
[38] = Stability in mouse plasma assessed as half life by UPLC-MS/MS analysis; type: ADME, cell-free

Compound: Cc1sc2c(c1C)C(c1ccc(Cl)cc1)=N[C@@H](CC(=O)NCCc1ccc(C3CCC(=O)NC3=O)cc1)c1nnc(C)n1-2 (stereo not given in full)
- DC50 [1]: 0.19 nM
- Emax [2]: 98%
- Activity [3]: 0.733 fRLU/hr
- IC50 (MV4-11): 0.18 nM
- IC50 (HD-MB03): 2.23 nM
- solubility kinetic [4]: 71.4 µM (≈ 43.9 µg/mL)
- half-life [5]: 16.2 min
- Activity [6]: Active
- Activity (HEK293): Non-toxic
- AUC [7]: 292000

- DC50 [1]: 0.58 nM
- Emax [2]: 96.6%
- Activity [3]: 0.201 fRLU/hr
- solubility kinetic [4]: 48.4 µM (≈ 39.1 µg/mL)
- half-life [5]: 45 min
- Activity [8]: Active
- Activity [9]: Active
- Activity [10]: Active
- Activity [11]: > 95%
- Activity [12]: > 95%
- Activity [13]: > 90%
- Activity [14]: Active
- Activity [15]: Active
- Activity [16]: Active
- Activity [17]: Active
- Papp at 1 h [37]: 3.4 ×10⁻⁶ cm/s
- half-life [38]: 1790 min
Compound: Cc1sc2c(c1C)C(c1ccc(Cl)cc1)=N[C@@H](CC(=O)N1CCC(CN3CCN(c4ccc5c(c4)CN(C4CCC(=O)NC4=O)C5=O)CC3)CC1)c1nnc(C)n1-2 (stereo not given in full)
- IC50 (MV4-11): 0.14 nM
- IC50 (HD-MB03): 1.56 nM
- Activity [6]: Active
- Activity (HEK293): Non-toxic
- fold change (FC) [18]: -3.9
- fold change (FC) [19]: -3.57
- fold change (FC) [20]: -2.91
- fold change (FC) [21]: -1.72
- fold change (FC) [22]: -1.54
- fold change (FC) [23]: -1.47
- fold change (FC) [24]: -1.25
- fold change (FC) [25]: -1.06
- fold change (FC) [26]: -1.05
- fold change (FC) [27]: -1
- fold change (FC) [28]: -1.05
- fold change (FC) [29]: -1.06
- fold change (FC) [30]: -0.97
- fold change (FC) [31]: -0.9
- fold change (FC) [32]: -0.82
- fold change (FC) [33]: -0.78
- fold change (FC) [34]: -0.92
- fold change (FC) [35]: -0.1
- fold change (FC) [36]: 1.87
